# Experimental data: patent publication US10556865B2, “Synergistic herbicidal composition containing certain pyridine or pyrimidine carboxylic acids and certain cereal and rice herbicides” (Dow AgroSciences, LLC, priority 2007, dated 2020)
# Tested on: yellow foxtail (PESGL)
# Experiment: Postemergence herbicidal activity of mixtures in cereal crops (greenhouse, visual injury)
# Type: in vivo, Pennisetum americanum
# Protocol: Seeds of the desired test plant species were planted in Sun Gro MetroMix® 306 planting mixture, which typically has a pH of 6.0 to 6.8 and an organic matter content of about 30 percent, in plastic pots with a surface area of 103.2 square centimeters (cm^2). […] The plants were grown for 7-36 days in a greenhouse with an approximate 14 hour photoperiod which was maintained at about 18° C. during the day and 17° C. during the night. Nutrients and water were added on a regular basis and supplemental lighting was provided with overhead metal halide 1000-Watt lamps as necessary. The plants were employed for testing when they reached the second or third true leaf stage.
# Treatments consisted of compound (as listed in Tables 1 through 64) and a second cereal herbicide alone and in combination. […] The concentrated stock solutions were diluted to 1.5 mg ai/mL with the addition of 2 volumes of an aqueous mixture containing acetone, water, isopropyl alcohol, DMSO, Agri-dex crop oil concentrate, and Triton® X-77 surfactant in a 64.7:26.0:6.7:2.0:0.7:0.01 v/v ratio. A dilution solution was prepared by mixing 1 volume of 97:3 v/v acetone/DMSO and 2 volumes of an aqueous mixture containing acetone, water, isopropyl alcohol, DMSO, Agri-dex crop oil concentrate, and Triton® X-77 surfactant in a 64.7:26.0:6.7:2.0:0.7:0.01 v/v ratio. Compound requirements are based upon a 12 mL application volume at a rate of 187 liters per hectare (L/ha). […] Formulated compounds were applied to the plant material with an overhead Mandel track sprayer equipped with 8002E nozzles calibrated to deliver 187 L/ha over an application area of 0.503 square meters (m^2) at a spray height of 18 inches […] above average plant canopy. Control plants were sprayed in the same manner with the solvent blank.
# The treated plants and control plants were placed in a greenhouse as described above and watered by sub-irrigation to prevent wash-off of the test compounds. After 20-22 days, the condition of the test plants as compared with that of the control plants was determined visually and scored on a scale of 0 to 100 percent where 0 corresponds to no injury and 100 corresponds to complete kill.
# Colby's equation was used to determine the herbicidal effects expected from the mixtures (Colby, S. R. 1967. Calculation of the synergistic and antagonistic response of herbicide combinations. Weeds 15:20-22.).
# The following equation was used to calculate the expected activity of mixtures containing two active ingredients, A and B: Expected=A+B−(A×B/100)
structure (smiles),measurement,setting,value
"COC(=O)c1nc(-c2ccc(Cl)c(OC)c2F)nc(N)c1Cl [Compound B Methyl, 6-amino-5-chloro-2-(4-chloro-2-fluoro-3-methoxyphenyl)pyrimidine-4-carboxylic acid methyl ester]",PESGL Ob,8.75 g/ha,60%
same,PESGL Ob,17.5 g/ha,65%
same,PESGL Ob,35 g/ha,65%
same,PESGL Ob,70 g/ha,70%
